Assay results as given in patent US6509344B1, “Indenoisoquinolines as antineoplastic agents” (The United States of America as represented by the …, priority 1998, dated 2003).

Tests used:
HCT-116 = experiment: NCI human cancer cell line screen (COMPARE screening), Colon HCT-116; type: cell-based; conditions: Homo sapiens; HCT-116; concentration causing 50% growth inhibition; read-out: Cytotoxicity (G150 in μM) Colon HCT-116
Source text: (§1) Considering the diversity of cancer in terms of cell type, morphology, growth rate and other cellular characteristics, the U.S. National Cancer Institute (NCI) has developed a “disease-oriented” approach to anticancer activity screening (M. R. Boyd, in “Principle of Practice of Oncology” […]. Rosenberg (Eds.) Vol. 3, PPO Update, No. 10, 1989). This in vitro prescreening system is based on the measurement of anticancer cytotoxicity against human cancer cell line panels consisting of approximately 60 cell lines of major human cancers (including leukemia and slower growing tumor cells such as lung, colon, breast, skin, kidney, etc.) and is referred hereinafter as “COMPARE” screening. An important advantage of the new in vitro screening panels is the opportunity to facilitate identification of compounds that are selectively more cytotoxic to cells of certain types of cancers, thus increasing the ability to select compounds for further study with respect to specific diseases. The indenoisoquinolines were examined for antiproliferative activity against the human cancer cell lines in the National Cancer Institute screen (COMPARE screening), in which the activity of each compound was evaluated with approximately […] different cancer cell lines of diverse tumor origins.

DU-145 = experiment: NCI human cancer cell line screen (COMPARE screening), Prostate DU-145; type: cell-based; conditions: Homo sapiens; DU-145; concentration causing 50% growth inhibition; read-out: Cytotoxicity (G150 in μM) Prostate DU-145
Source text: as §1

[1] = test system: approximately 55 different cancer cell lines of diverse tumor origins; experiment: NCI screen mean graph midpoint over all cell lines tested; type: cell-based, human; conditions: for IC50: Homo sapiens, average GI50 for all cell lines tested (approximately 55), values outside test range taken as 10^-8 or 10^-4 molar, read-out: MGM (mean graph midpoint); for cytotoxicity (MGM) relative to lead compound 1: comparison in words
Source text: as §1

topoisomerase I = target: T1, topoisomerase I (Homo sapiens, UniProt P11387); experiment: Topoisomerase I-mediated DNA cleavage assay (3'-end-labeled 161 bp pBluescript SK(-) fragment); type: biochemical; conditions: relative to the activity of 1 μM camptothecin
T1 sequence (P11387 1-765): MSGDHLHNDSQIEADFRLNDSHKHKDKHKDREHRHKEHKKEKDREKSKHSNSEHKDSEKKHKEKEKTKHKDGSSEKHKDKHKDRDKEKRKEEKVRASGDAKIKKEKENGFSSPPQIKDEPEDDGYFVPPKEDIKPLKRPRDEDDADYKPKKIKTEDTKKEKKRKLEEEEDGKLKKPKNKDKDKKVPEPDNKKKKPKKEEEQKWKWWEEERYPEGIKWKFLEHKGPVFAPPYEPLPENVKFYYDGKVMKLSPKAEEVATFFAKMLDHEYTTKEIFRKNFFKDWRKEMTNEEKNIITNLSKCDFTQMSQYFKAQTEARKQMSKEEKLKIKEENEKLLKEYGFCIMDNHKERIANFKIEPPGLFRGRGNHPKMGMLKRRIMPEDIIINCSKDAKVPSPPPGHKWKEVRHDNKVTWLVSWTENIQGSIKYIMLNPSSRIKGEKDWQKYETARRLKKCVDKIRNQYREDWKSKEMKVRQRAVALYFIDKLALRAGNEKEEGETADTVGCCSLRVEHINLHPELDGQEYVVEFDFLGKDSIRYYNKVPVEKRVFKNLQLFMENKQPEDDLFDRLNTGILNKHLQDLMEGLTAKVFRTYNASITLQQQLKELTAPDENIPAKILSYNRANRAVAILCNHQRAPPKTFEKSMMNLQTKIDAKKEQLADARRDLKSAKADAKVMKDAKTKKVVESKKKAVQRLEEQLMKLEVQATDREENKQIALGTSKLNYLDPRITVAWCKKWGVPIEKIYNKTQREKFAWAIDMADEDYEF
Protocol: Topoisomerase I-Mediated DNA Cleavage Reactions Using 3′-End-labeled 161 BP Plasmid DNA
The 161 bp fragment from pBluescript SK(−) phagemid DNA (Stratagene, La Jolla, Calif.) was cleaved with the restriction endonuclease Pvu II and Hind III (New England Biolabs, Beverly, Mass.) in supplied NE buffer 2 (10 μL reactions) for 1 h at 37° C., separated by electrophoresis in a 1% agarose gel made in 1×TBE buffer. The 161 bp fragment was eluted from the gel slice (centrilutor by Amicon) and concentrated in a centricon 50 centrifugal concentrator (Amicon, Beverly, Mass.). Approximately 200 ng of the fragment was 3′-end-labeled at the Hind III site by fill-in reaction with [alpha-^32P]-dCTP and 0.5 mM dATP, dGTP, and dTTP, in React 2 buffer (50 mM Tris-HCl, pH 8.0, […], 50 mM NaCl) with 0.5 units of DNA polymerase I (Klenow fragment). Labeling reactions were followed by phenol-chloroform extraction and ethanol precipitation. The resulting 161 bp 3′-endlabeled DNA fragment was resuspended in water. Aliquots (approximately 50,000 dpm/reaction) were incubated with topoisomerase I at 30° C. for 15 min in the presence of the indicated drug. Reactions were terminated by adding 0.5% SDS. After ethanol precipitation, the samples were resuspended in loading buffer (80% formamide, 10 mM sodium hydroxide, 1 mM sodium EDTA, 0.1% xylene cyanol, and 0.1% bromophenol blue, pH 8.0), and separated in a denaturing gel (16% polyacrylamide, 7 M urea) run at 51° C. The gel was dried and visualized by using a Phosphoimager and ImageQuant software (Molecular Dynamics, Sunnyvale, Calif.).

SF-539 = experiment: NCI human cancer cell line screen (COMPARE screening), CNS SF-539; type: cell-based; conditions: Homo sapiens; SF-539; concentration causing 50% growth inhibition; read-out: Cytotoxicity (G150 in μM) CNS SF-539
Source text: as §1

UACC-62 = experiment: NCI human cancer cell line screen (COMPARE screening), Melanoma UACC-62; type: cell-based; conditions: Homo sapiens; UACC-62; concentration causing 50% growth inhibition; read-out: Cytotoxicity (G150 in μM) Melanoma UACC-62
Source text: as §1

HOP-62 = experiment: NCI human cancer cell line screen (COMPARE screening), Lung HOP-62; type: cell-based; conditions: Homo sapiens; HOP-62; concentration causing 50% growth inhibition; read-out: Cytotoxicity (G150 in μM) Lung HOP-62
Source text: as §1

SN12C = experiment: NCI human cancer cell line screen (COMPARE screening), Renal SN12C; type: cell-based; conditions: Homo sapiens; SN12C; concentration causing 50% growth inhibition; read-out: Cytotoxicity (G150 in μM) Renal SN12C
Source text: as §1

OVCAR-3 = experiment: NCI human cancer cell line screen (COMPARE screening), Ovarian OVCAR-3; type: cell-based; conditions: Homo sapiens; OVCAR-3; concentration causing 50% growth inhibition; read-out: Cytotoxicity (G150 in μM) Ovarian OVCAR-3
Source text: as §1

MDA-MB-435 = experiment: NCI human cancer cell line screen (COMPARE screening), Breast MDA-MB-435; type: cell-based; conditions: Homo sapiens; MDA-MB-435; concentration causing 50% growth inhibition; read-out: Cytotoxicity (G150 in μM) Breast MDA-MB-435
Source text: as §1

SMILES | IC50 (HCT-116) | IC50 (DU-145) | IC50 [1] | Top 1 Cleavage (topoisomerase I) | IC50 (SF-539) | IC50 (UACC-62) | IC50 (HOP-62) | IC50 (SN12C) | IC50 (OVCAR-3) | IC50 (MDA-MB-435) | cytotoxicity (MGM) relative to lead compound 1 [1]
O=C1c2ccccc2-c2oc(=O)c3ccccc3c21 [Compound 2, benz[d]indeno[1,2-b]pyran-5,11-dione] | > 100 µM | > 100 µM | 85 µM | 0 | > 100 µM | > 100 µM | > 100 µM | > 100 µM | > 100 µM | > 100 µM | 
CCn1c2c(c3ccccc3c1=O)C(=O)c1ccccc1-2 [Compound 3, 6-Ethyl-5,6-dihydro-5,11-diketo-11H-indeno[1,2-c]isoquinoline] |  |  |  | 0 |  |  |  |  |  |  | 
CCCn1c2c(c3ccccc3c1=O)C(=O)c1ccccc1-2 [Compound 4, 5,6-Dihydro-5,11-diketo-6-propyl-11H-indeno[1,2-c]isoquinoline] |  |  |  | 0 |  |  |  |  |  |  | 
O=C1c2ccccc2-c2c1c1ccccc1c(=O)n2C1CC1 [Compound 5, 6-Cyclopropyl-5,6-dihydro-5,11-diketo-11H-indeno[1,2-c]isoquinoline] | > 100 µM | > 100 µM | 98 µM | 0 | > 100 µM | 84 µM | 61 µM | > 100 µM | > 100 µM | > 100 µM | 
COC(=O)Cn1c2c(c3ccccc3c1=O)C(=O)c1ccccc1-2 [Compound 6, 5,6-Dihydro-5,11-diketo-6-(methoxycarbonylmethyl)-11H-indeno[1,2-c]isoquinoline] |  | > 100 µM | 81 µM | 0 | > 100 µM | > 100 µM |  | > 100 µM | > 100 µM | > 100 µM | 
Cn1c2c(c3ccccc3c1=O)C(=O)c1cc3c(cc1-2)OCO3 [Compound 13a, 5,6-Dihydro-5,11-diketo-6-methyl-8,9-methylenedioxy-11H-indeno[1,2-c]isoquinoline] | 54 µM | > 100 µM | 45 µM | + (those compounds having between 20% and 50% of the activity of 1 μM camptothecin) |  | > 100 µM | 22 µM | > 100 µM | > 100 µM |  | 
CCCCn1c2c(c3cc(OC)c(OC)cc3c1=O)C(=O)c1cc3c(cc1-2)OCO3 [Compound 13d, 6-(1-Butyl)-5,6-dihydro-5,11-diketo-2,3-dimethoxy-8,9-methylenedioxy11H-indeno[1,2-c]isoquinoline] | 45 µM | 16 µM | 42 µM | + (those compounds having between 20% and 50% of the activity of 1 μM camptothecin) |  | 21 µM | 16 µM |  | 78 µM | > 100 µM | 
COc1cc2c3c(n(Cc4ccccc4)c(=O)c2cc1OC)-c1cc2c(cc1C3=O)OCO2 [Compound 13e, 6-Benzyl-5,6-dihydro-5,11-diketo 2,3-dimethoxy-8,9-methylenedioxy-11H-indeno[1,2-c]isoquinoline] | > 100 µM | 4 µM | 42 µM | ± (those compounds having less than 20% of the activity of 1 μM camptothecin) |  | 50 µM | 12 µM |  | > 100 µM | > 100 µM | lower MGM than the lead compound 1
COc1cc2c(c(OC)c1OC)C(=O)c1c-2n(C)c(=O)c2ccccc12 [Compound 13j, 5,6-Dihydro-5,11-diketo-6-methyl-8,9,10-trimethoxy-11H-indeno[1,2-c]isoquinoline] |  | > 100 µM | 78 µM | 0 | > 100 µM |  | 24 µM | > 100 µM | > 100 µM |  | 
COc1cc2c3c(n(C)c(=O)c2cc1OC)-c1cc(OC)c(OS(C)(=O)=O)cc1C3=O [Compound 23, 5,6-Dihydro-5,11-diketo-2,3,8-trimethoxy-6-methyl-9[(methylsulfonyl)oxy]-(11H)indeno[1,2-c]isoquinoline] |  |  |  | ± (those compounds having less than 20% of the activity of 1 μM camptothecin) |  |  |  |  |  |  | 
CCN1C(=O)c2cc(OC)c(OC)cc2[C@@H]2[C@H]1c1cc3c(cc1[C@@H]2O)OCO3 [Compound 24, 6-Ethyl-5,6,12α,13α-tetrahydro-11β-hydroxy-2,3-dimethoxy-8,9-(methylenedioxy)-5-oxo-11H-indeno[1,2-c]isoquinoline] | > 100 µM | > 100 µM | 100 µM | 0 | > 100 µM |  | > 100 µM | > 100 µM | > 100 µM | > 100 µM | 
CCN1Cc2cc(OC)c(OC)cc2[C@@H]2[C@H]1c1cc3c(cc1[C@@H]2O)OCO3 [Compound 25, 6-Ethyl-5,6,12α,13α-tetrahydro-11β-hydroxy-2,3-dimethoxy-8,9-(methylenedioxy)-11H-indeno[1,2-c]isoquinoline] | 35 µM | 41 µM | 31 µM | 0 | 50 µM |  | 30 µM | 26 µM | 24 µM | 25 µM | 
CC[n+]1cc2cc(OC)c(OC)cc2c2c1-c1cc3c(cc1C2)OCO3 [Compound 27, 6-Ethyl-2,3-dimethoxy-8,9-(methylenedioxy)-11H-indeno[1,2-c]isoquinolinium Chloride] | 13 µM | 58 µM | 13 µM | ++ (those compounds having greater than 50% of the activity of 1 μM camptothecin) | 5.6 µM |  | 22 µM | 2.7 µM | 1.9 µM | 14 µM | lower MGM than the lead compound 1
